Test results published in US7544365B2, “TRPV1+ sensory neurons control of β-cells stress and islet inflammation in diabetes” (priority 2006, dated 2009).
Entries after “also recorded” stand apart in the source; their conditions may differ.

Assays:
TRPV1^+ neurons [1] = test: Neonatal capsaicin treatment of diabetes-prone NOD mice: insulitis and diabetes development; type: in vivo
From the text: Using immunofluorescence, it was observed that murine islets are associated with meshworks of TRPV1^+ fibers (FIG. 1a). TRPV1 was undetectable in endocrine islet cells by immunofluorescence (FIG. 1a, b) and by RT-PCR of purified NOD islets (FIG. 9). based on this evidence of islet innervation by TRPV1^+ primary afferent sensory neurons, we investigated their possible role in T1D pathogenesis, using neonatal treatment of diabetes-prone NOD mice with capsaicin to permanently remove these neurons (Caterina and Julius, 2001; Jancso et al., 1977). Two day-old NOD mice received capsaicin (50 mg/kg, s.c.) or vehicle (NOD^caps, NOD^ctrl). […] We confirmed the lack of TRPV1 expression in NOD^caps mice, using immunofluorescence (FIG. 1a, b, TRPV1 green), Western blots (8, 12 & 20 wk), and standard hot-plate testing in randomly selected 5-6 wk old or in diabetic animals (FIG. 1c).
(§1) NOD, NOD.scid, BDC2.5 TCR transgenic NOD mice (‘BDC2.5-NOD’), NOD-β2m^null, C57BL/6 (‘B6’), B6-TRPV1^null, NOR NOD×B6 Idd4 congenic mice (NOD.B6-(D11Nds1-D11Mit325)/DelJ) were obtained from the Jackson Laboratories (Bar Harbor, Me.) and maintained under approved protocols in our vivarium (NOD female diabetes incidence: 85-90%). […] Control mice (NOD^ctrl) received 20 μL vehicle (10% ethanol, 10% Tween, 80% saline). In adoptive transfer experiments, splenocytes from 4-6 diabetic NOD females were pooled and 10^7 cells/mouse were injected (100 μL i.v.) into irradiated (300 rad) 6- to 8 wk-old NOD.scid recipients. Diastix strips were used to screen for glucosuria (Bayer HealthCare), diabetes was confirmed by diabetic blood glucose measurements on 2 consecutive days (>13.8 mM/l; SureStep, Life Technologies Inc., Burnaby, British Columbia, Canada).
Frozen murine pancreas sections were fixed in 4% paraformaldehyde, blocked with 5% normal donkey serum (Jackson), and stained with polyclonal rat or goat antibodies against GFAP (Signet Pathology Systems, Dedham, Mass.), polyclonal rabbit anti-TRPV1 (Oncogene) or guinea-pig antibody against insulin (DAKO, Carpinteria, Calif.). Bound antibodies were detected with biotinylated donkey anti-guinea pig or rat IgG (1:200, Jackson), Streptavidin AlexaFluor 546 or 633 (1:300, Molecular Probes, Eugene, Oreg.), and FITC conjugated donkey anti-rabbit IgG (1:25, Jackson). […] TRPV1 staining was performed on snap-frozen sections of NOD female pancreas with an overnight incubation of primary antibody at 4° C. To score insulitis severity, pancreata were fixed in 10% buffered formalin for a minimum of 24 hr. Histological sections were stained with hematoxylin and eosin and three blinded observers scored at the following scale: 0, normal islet; 1, peri-insulitis or encroachment of <25% of the islet surface area; 2, infiltration of 25-50% of the islet surface area; 3, infiltration of >50% of the islet surface area (Winer et al., 2003). Spleen and lymph node cells were stained with either 2 nM PE-conjugated NRP-V7/H-2K^d or TUM/H-2K^d tetramers, the latter a negative control, in FACS buffer (1% v/v FBS, 0.1% w/v NaN3 in PBS) at 4° C. for 1 hr, followed by staining with FITC-conjugated anti-CD8 mAb (clone 53-6.7; […]) and PerCP-conjugated anti-B 220 Ab (clone RA6-3B2; […], both from BD Pharmingen). Tetramer positivity was analyzed on gated CD8+B220− cells and reported as percentage of cells binding the NRP-V7/H-2K^d tetramer minus the percentage of cells binding the negative control, TUM/H-2K^d tetramer.

TRPV1^+ neurons [2] = test: Systemic and pancreatic T cell development and function in NOD^caps versus NOD^ctrl mice; type: in vivo
Experimental: Delayed type hypersensitivity (DTH): […] Abdomens were shaved and 100 μl of the allergen were applied. 6 d later, the baseline thickness of right ears were measured by gauge before application of 10 μl 1% TNCB in oil or carrier only. Ear thickness was re-measured in sensitized and naïve animals 24 hr later. […] Calbiochem, San Diego, Calif.) were purchased, other antigens were previously generated and described (Winer et al., 2003). After 72 hrs, cultures were pulsed (1 μCi, [3H]thymidine/18 hrs) and counted by liquid scintillation. Lymph node assays were similar, but used 2×10^5 lymph node cells plus 2×10^5 irradiated (1,100 rad), syngeneic splenocytes/well. […] Bound antibodies were detected with biotinylated donkey anti-guinea pig or rat IgG (1:200, Jackson), Streptavidin AlexaFluor 546 or 633 (1:300, Molecular Probes, Eugene, Oreg.), and FITC conjugated donkey anti-rabbit IgG (1:25, Jackson). […] Histological sections were stained with hematoxylin and eosin and three blinded observers scored at the following scale: 0, normal islet; 1, peri-insulitis or encroachment of <25% of the islet surface area; 2, infiltration of 25-50% of the islet surface area; 3, infiltration of >50% of the islet surface area (Winer et al., 2003). […] Live events were collected based on forward- and side-scatter profiles on a FACScan flow cytometer (BD) and analyzed using FlowJo software (Stanford University).

TRPV1^+ sensory neurons = test: Glucose challenge and insulin tolerance after capsaicin removal of TRPV1^+ sensory neurons; type: in vivo, NOD.scid / NOD mice
From the text: We compared measures of β-cell function in untreated and in capsaicin treated NOD.scid mice, and in C57/BL6J (‘B6’) and B6.TRPV1^−/− mice, the latter with a normal complement of sensory afferent neurons but absent TRPV1 expression (Caterina et al., 2000). NOD.scid mice were used to ascertain absence of lymphoid islet infiltration in NOD experiments, CD1 mice provided controls (FIGS. 17A-17C).
as §1

TRPV1 = test: Capsaicin-evoked Ca^2+ responses in dorsal root ganglion neurons; type: cell-based, NOD and NOR mice; conditions: NOD DRG neurons compared with NOR, p<0.05
Experimental: Dorsal root ganglia from male NOD, NOR mice and NOD.B6.Idd4-congenic (5-10 wk) were isolated and cultured in F12 medium (Invitrogen) with 10 ng/mL nerve- and 10 ng/mL glial-derived nerve growth factor. Cultures were used 3-5 d after plating. The Ca^2+-sensitive fluorophore, fura-2 (Molecular Probes, Eugene, Oreg.), was used to assess [Ca^2+]i by ratiometric measurement. Excitation (340 and 380 nm) was generated by a xenon arc lamp and passed through a high-speed, computer-controlled, variable-wavelength monochromator. This light was transmitted to the recording dish via a fiberoptic cable. Emitted light was directed through a 510 nm bandpass filter and detected by an intensified CCD camera. Image data were analyzed off-line. Each 340 nm image was divided, on a pixel-by-pixel basis, by the corresponding 380 nm image, producing a ratio. Averaged values of the ratios within each region of interest were plotted as a function of time.

[3] = tested on: islet T cell infiltration; test: Intra-arterial pancreas injection of substance P in prediabetic NOD mice (insulitis); type: in vivo
Experimental: (§2) Animals were anaesthetized with isoflurane and the aorta developed with minimal trauma to ligate above and below the celiac artery. A 32G needle was used to inject Evans Blue (3 mg/kg/100 μl; Sigma), substance P (2 nmol/100 μl; Sigma) or saline into the aorta just prior to the celiac branching. Ligations are released after closure of the injection site. For insulitis studies, pancreata from treated mice were obtained 48-72 hr after pancreas injection treatment and histology performed. In diabetes reversal experiments, newly diagnosed NOD female mice were treated with either saline or substance P and followed without exogenous insulin treatment.
Frozen murine pancreas sections were fixed in 4% paraformaldehyde, blocked with 5% normal donkey serum (Jackson), and stained with polyclonal rat or goat antibodies against GFAP (Signet Pathology Systems, Dedham, Mass.), polyclonal rabbit anti-TRPV1 (Oncogene) or guinea-pig antibody against insulin (DAKO, Carpinteria, Calif.). Bound antibodies were detected with biotinylated donkey anti-guinea pig or rat IgG (1:200, Jackson), Streptavidin AlexaFluor 546 or 633 (1:300, Molecular Probes, Eugene, Oreg.), and FITC conjugated donkey anti-rabbit IgG (1:25, Jackson). […] TRPV1 staining was performed on snap-frozen sections of NOD female pancreas with an overnight incubation of primary antibody at 4° C. […]

[4] = Diabetes reversal after pancreatic i.a. substance P in newly diabetic NOD mice; type: in vivo
Experimental: as §2

[5] = tested on: activated CD4+ NOD T cells; test: sP response of activated CD4+ NOD T cells in vitro (proliferation); type: cell-based, NOD mice
Experimental: Splenocytes from 3- to 24 wk-old NOD females were cultured (4×10^5 cells/well) in AIM V serum-free medium (Life Technologies) containing antigen (0.002-50 μg/ml), baculovirus-derived human GAD65 (Diamyd Diagnostics, Stockholm, Sweden), human GFAP (>90% pure) and bovine S100b (>98% pure; Calbiochem, San Diego, Calif.) were purchased, other antigens were previously generated and described (Winer et al., 2003). After 72 hrs, cultures were pulsed (1 μCi, [3H]thymidine/18 hrs) and counted by liquid scintillation. Lymph node assays were similar, but used 2×10^5 lymph node cells plus 2×10^5 irradiated (1,100 rad), syngeneic splenocytes/well. To normalize pooled data, we calculated a stimulation index (SI, cpm antigen stimulated/medium control), background counts were <1500 cpm in spleen cell and <1000 cpm in lymph node cultures. In some proliferation studies, plate-bound anti-CD3 (0.001-3 μg/ml; BD PharMingen) and anti-CD28 (0.2 μg/ml; BD PharMingen) were used to stimulate CD4+ T-cells negatively selected from NOD β2m^null splenocytes in the presence of substance P.

[6] = tested on: BDC2.5 T cell receptor transgenic T cells; test: CFSE dye dilution in vivo clonal expansion of BDC2.5 T cells in pancreatic lymph nodes; design: species or system NOD mice
Experimental: For dye dilution in vivo clonal expansion studies, splenic CD4+ T-cells from NOD-BDC2.5 females were isolated by negative selection (Stemcell Technologies, Vancouver, Canada) and incubated with 2.5 μM CFSE (10′/37° C., Molecular Probes, Eugene, Oreg.) in PBS. Prediabetic (12 wk) NOD females pretreated 12 hr prior with substance P or saline, were injected i.v. with 3×10^6 CFSE-labeled CD4+ T-cells in sterile PBS.
Lymphocytes from thymus, pancreatic/axillary lymph nodes and spleen were stained with FITC, PE, and APC conjugated antibodies to CD3, CD4, CD8, CD44, CD25, CD69 CD62L and FoxP3 (BD Pharmingen, not all combinations are shown). NK-1R and Vβ4 antibodies were obtained from Novus Biologicals (Littleton, Colo.) and Cedarlane (Hornby, Canada), respectively. Live events were collected based on forward- and side-scatter profiles on a FACScan flow cytometer (BD) and analyzed using FlowJo software (Stanford University).

[7] = systemic (i.v.) injection of the same sP dose
[8] = mice that failed to reverse hyperglycemia, i.a. sP

COc1cc(CNC(=O)CCCC/C=C/C(C)C)ccc1O [capsaicin]
tolerability of neonatal capsaicin treatment (TRPV1^+ neurons [1]; 50 mg/kg s.c. in 2 day-old mice): viable, fertile, without abnormalities in growth or gross tissue structure, including pancreas; also recorded: no signs of adverse effects
islets free of lymphocytes (TRPV1^+ neurons [1]; NOD^caps mice (capsaicin 50 mg/kg s.c. at 2 days old), by age 20 wk): More than 70%
islet infiltrations compared with NOD^ctrl (TRPV1^+ neurons [1]; NOD^caps mice, p<0.0001): significantly reduced
reduction in final diabetes incidence (TRPV1^+ neurons [1]; neonatal capsaicin treatment, 35 wk plus next 12 wk, n=52 mice/group, p<0.0001): about 80%
onset of diabetes (TRPV1^+ neurons [1]; neonatal capsaicin treatment, p=0.0002): delayed the onset of diabetes
fraction of NOD^caps mice in which infiltrated islets were entirely absent (TRPV1^+ neurons [1]; serial sectioning): one third
regulatory T cell compartment in pancreatic lymph nodes (TRPV1^+ neurons [2]; NOD^caps mice, beyond 12-16 wk of age): maintained their regulatory T cell compartment
CD8+ and activated CD8+ CD69+ effector T lymphocytes in pancreatic lymph node tissue (TRPV1^+ neurons [2]; NOD^caps versus NOD^ctrl): significantly reduced proportions and absolute numbers
serum glucose levels after i.p. glucose challenge (TRPV1^+ sensory neurons; 10-12 wk old NOD.scid^caps versus NOD.scid^ctrl, p=0.004): significantly reduced
insulin production after glucose challenge (TRPV1^+ sensory neurons; NOD.scid^caps versus NOD.scid^ctrl): significantly less insulin production
drug concentration required for maximum Ca^2+ response, NOD versus NOR DRG neurons (TRPV1): 10 fold

substance P
islets free of T cell infiltration ([3]; prediabetic NOD, 12 wk of age, within 2d after i.a. sP injection (2 nmoles/kg)): about 80%
effect on islet T cell infiltration, systemic injection [3, 7]: did not have similar effects
body weight [4, 8]: preventing the progressive loss of body weight
insulin sensitivity in non-responding mice [4, 8]: improved insulin sensitivity
normalization of blood glucose levels ([4]; newly diabetic NOD mice, 2-3 d after diagnosis, pancreatic i.a. sP, without insulin therapy): over half of the i.a. injected diabetics normalized blood glucose levels
insulin sensitivity ([4]; raising pancreatic sP levels, diabetic NOD mice): dramatically enhanced insulin sensitivity
time fasting blood glucose remained at near normal levels ([4]; responding mice): 2-8 wk
cell proliferation and survival [5]: abrogated cell proliferation and survival in a dose-dependent fashion
expansion in pancreatic lymph nodes of BDC2.5 cells pretreated in vitro ([6]; cells in vitro pretreated with sP overnight, p=0.0045): reduced the ability of these cells to expand in pancreatic lymph nodes
cellularity and clonal expansion of BDC2.5 T cells in pancreatic lymph nodes ([6]; pancreatic i.a. sP 12-16 hr before transfer, analyzed 4 days later, dye dilution, p=0.003): reduced cellularity and clonal expansion
expansion of BDC2.5 T cells in pancreatic lymph nodes, systemic injection [6, 7]: had no effect on expansion
